Source: patent US20090209536A1, “AMINOQUINAZOLINE CANNABINOID RECEPTOR MODULATORS FOR TREATMENT OF DISEASE” (KALYPSYS, INC., priority 2007, published 2009)
Read-outs that look alike come from different tables or passages of the source.

Tests used:
[1] = target: T1, human cannabinoid receptor type 2 (Homo sapiens, UniProt P34972); experiment: Human CB2 Radioligand Binding Assay; conditions: membranes from stably transfected CHO CB2 cells
T1 construct: expressed in transfected cells; membrane preparation
Summary of the method: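 Filtration competition binding on membranes from CHO cells stably expressing human CB2, with [3H]CP-55,940 at its lot-specific Kd, in 50 mM Tris-HCl pH 7.4, EGTA, MgCl2, 5 mg/ml BSA, 1% DMSO; 90 min at 30° C. Compounds at 10 uM single point or dose-response; bound radioactivity by scintillation, 100 nM CP-55,940 as 100% efficacy.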

[2] = target: T2, human cannabinoid receptor type 1 (Homo sapiens, UniProt P21554); experiment: Human CB1 Radioligand Binding Assay (basis of selectivity, CB2 vs. CB1); conditions: CB1: HEK 293 EBNA cells expressing human CB1; CB2: CHO CB2 membranes
T2 construct: purchased Perkin Elmer RBHCB1M; host or cells: HEK 293 EBNA cells
Procedure: 2. Human CB1 Radioligand Binding Assay
The incubation buffer was composed of 50 mM Tris-HCl pH 7.4, 2.5 mM EDTA, 5 mM MgCl2, 5.0 mg/ml fatty acid free BSA and the wash buffer was composed of 50 mM Tris-HCl pH 7.4, 2.5 mM EDTA, 5 mM MgCl2, 0.5 mg/ml fatty acid free BSA.

[3] = competition with [3H] CP-55,940, read-out: CB2 Ligand Binding Asssay EC50

T2 sequence (P21554 whole entry): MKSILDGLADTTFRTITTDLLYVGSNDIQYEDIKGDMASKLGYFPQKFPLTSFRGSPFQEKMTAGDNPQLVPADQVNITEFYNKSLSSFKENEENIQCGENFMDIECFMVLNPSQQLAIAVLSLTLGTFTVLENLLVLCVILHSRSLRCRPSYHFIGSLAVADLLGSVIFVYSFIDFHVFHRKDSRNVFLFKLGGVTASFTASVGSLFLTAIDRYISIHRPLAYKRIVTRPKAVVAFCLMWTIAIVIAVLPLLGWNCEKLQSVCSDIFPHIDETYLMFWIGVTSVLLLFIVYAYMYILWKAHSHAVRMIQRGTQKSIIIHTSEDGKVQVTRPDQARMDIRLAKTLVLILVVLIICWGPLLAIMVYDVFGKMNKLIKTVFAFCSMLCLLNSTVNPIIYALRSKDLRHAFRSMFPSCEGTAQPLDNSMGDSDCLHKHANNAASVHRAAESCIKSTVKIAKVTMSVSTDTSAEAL
T1 sequence (P34972 whole entry): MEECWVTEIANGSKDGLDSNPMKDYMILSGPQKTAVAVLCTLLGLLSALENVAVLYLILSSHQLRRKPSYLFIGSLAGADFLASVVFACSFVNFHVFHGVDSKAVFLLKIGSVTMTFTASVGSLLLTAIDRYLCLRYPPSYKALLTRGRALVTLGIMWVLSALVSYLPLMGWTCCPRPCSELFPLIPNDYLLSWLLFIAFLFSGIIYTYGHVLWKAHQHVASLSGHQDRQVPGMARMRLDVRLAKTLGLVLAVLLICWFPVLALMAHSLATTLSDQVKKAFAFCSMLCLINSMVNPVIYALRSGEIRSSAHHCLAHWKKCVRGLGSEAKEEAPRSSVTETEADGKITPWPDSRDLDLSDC

EC50 [1, 3] [µM]	Selectivity, CB2 vs. CB1 [2]	SMILES	EC50 ([1]; CB2 Ligand Binding Asssay EC50, competition with [3H] CP-55,940) [µM]
> 1	− (− indicates ≦ 10−fold)	Clc1ccccc1-c1nc(NCC23CC4CC(CC(C4)C2)C3)c2ccccc2n1 [Example 190, 2-(2-Chlorophenyl)-N-(1-adamanthylmethyl)quinazolin-4-amine]	
> 1	− (− indicates ≦ 10−fold)	Clc1ccccc1-c1nc(NCCc2ccccn2)c2ccccc2n1 [Example 191, 2-(2-Chlorophenyl)-N-(2-(pyridine-2-yl)ethyl)quinazolin-4-amine]	
> 1	− (− indicates ≦ 10−fold)	Clc1ccccc1-c1nc(NCCCN2CCOCC2)c2ccccc2n1 [Example 192, 2-(2-Chlorophenyl)-N-(3-morpholinopropyl)quinazolin-4-amine]	
< 1	− (− indicates ≦ 10−fold)	CN(CC1CCCCC1)c1nc(-c2ccccc2Cl)nc2ccccc12 [Example 194, 2-(2-Chlorophenyl)-N-(cyclohexylmethyl)-N-methylquinazolin-4-amine]	
> 1	− (− indicates ≦ 10−fold)	FC(F)(F)c1ccc(Cc2nc(N3CCCCC3)c3ccccc3n2)cc1 [Example 195, 4-(Piperidin-1-yl)-2-(4-(trifluoromethyl)benzyl)quinazoline]	
> 1	− (− indicates ≦ 10−fold)	CCOC(=O)N1CCN(c2nc(Cc3cccc(OC)c3)nc3ccccc23)CC1 [Example 196, Ethyl 4-(2-(3-Methoxybenzyl)quinazolin-4-yl)piperazine-1-carboxylate]	
< 1	+ (+ indicates > 10−fold)	Clc1nccc(N2CCN(c3nc(-c4ccccc4Cl)nc4ccccc34)CC2)n1 [Example 197, 2-(2-Chlorophenyl)-4-(4-(2-chloropyrimidin-4-yl)piperazin-1-yl)quinazoline]	
> 1	− (− indicates ≦ 10−fold)	Clc1ccnc(N2CCN(c3nc(-c4ccccc4Cl)nc4ccccc34)CC2)n1 [Example 198]	
> 1	− (− indicates ≦ 10−fold)	CC(=O)N1CCN(c2nc(-c3ccc(Cl)cc3)nc3ccccc23)CC1 [Example 199, 1-(4-(2-(4-Chlorophenyl)quinazolin-4-yl)piperazin-1-yl)ethanone]	
> 1	− (− indicates ≦ 10−fold)	CCOC(=O)N1CCN(c2nc(-c3ccc(Cl)cc3)nc3ccccc23)CC1 [Example 200, Ethyl 4-(2-(4-chlorophenyl)quinazolin-4-yl)piperazine-1-carboxylate]	
< 1	+ (+ indicates > 10−fold)	CC(=O)N1CCN(c2nc(-c3ccc(C(C)(C)C)cc3)nc3ccccc23)CC1 [Example 201, 1-(4-(2-(4-tert-Butylphenyl)quinazolin-4-yl)piperazin-1-yl)ethanone]	
< 1	− (− indicates ≦ 10−fold)	CC(=O)N1CCN(c2nc(-c3ccc(Cl)cc3Cl)nc3ccccc23)CC1 [Example 202, 1-(4-(2-(2,4-Dichlorophenyl)quinazolin-4-yl)piperazin-1-yl)ethanone]	
> 1	− (− indicates ≦ 10−fold)	CCOC(=O)N1CCN(c2nc(-c3ccc(Cl)cc3Cl)nc3ccccc23)CC1 [Example 203, Ethyl 4-(2-(2,4-dichlorophenyl)quinazolin-4-yl)piperazine-1-carboxylate]	
< 1	− (− indicates ≦ 10−fold)	FC(F)(F)Oc1ccc2nc(-c3ccccc3Cl)nc(N3CCSCC3)c2c1 [Example 204, 4-(2-(2-Chlorophenyl)-6-(trifluoromethoxy)quinazolin-4-yl)thiomorpholine]	
< 1	+ (+ indicates > 10−fold)	Clc1ccc2nc(-c3ccccc3Cl)nc(N3CCCC3)c2c1 [Example 205, 6-Chloro-2-(2-chlorophenyl)-4-(pyrrolidin-1-yl)quinazoline]	
> 1	− (− indicates ≦ 10−fold)	CCOC(=O)N1CCN(c2nc(-c3ccccc3Cl)nc3ccc(Cl)cc23)CC1 [Example 206, Ethyl 4-(6-chloro-2-(2-chlorophenyl)quinazolin-4-yl)piperazine-1-carboxylate]	
< 1	− (− indicates ≦ 10−fold)	Clc1ccc2nc(-c3ccccc3Cl)nc(N3CCSCC3)c2c1 [Example 207, 4-(6-Chloro-2-(2-chlorophenyl)quinazolin-4-yl)thiomorpholine]	

EC50 [1, 3] [µM]	Selectivity, CB2 vs. CB1 [2]	SMILES	EC50 ([1]; CB2 Ligand Binding Asssay EC50, competition with [3H] CP-55,940) [µM]
< 1	+ (+ indicates > 10−fold)	CN1CCN(c2nc(-c3ccccc3Cl)nc3ccc(Cl)cc23)CC1 [Example 208, 6-Chloro-2-(2-chlorophenyl)-4-(4-methylpiperazin-1-yl)quinazoline]	
> 1	− (− indicates ≦ 10−fold)	Clc1ccc(-c2nc(N3CCCC3)c3cc(Cl)ccc3n2)cc1 [Example 209, 6-Chloro-2-(4-chlorophenyl)-4-(pyrrolidin-1-yl)quinazoline]	
> 1	− (− indicates ≦ 10−fold)	Clc1ccc(-c2nc(N3CCSCC3)c3cc(Cl)ccc3n2)cc1 [Example 211, 4-(6-Chloro-2-(4-chlorophenyl)quinazolin-4-yl)thiomorpholine]	
> 1	− (− indicates ≦ 10−fold)	CN1CCN(c2nc(-c3ccc(Cl)cc3)nc3ccc(Cl)cc23)CC1 [Example 212, 6-Chloro-2-(4-chlorophenyl)-4-(4-methylpiperazin-1-yl)quinazoline]	
< 1	+ (+ indicates > 10−fold)	CCOC(=O)N1CCN(c2nc(-c3ccccc3Cl)nc3ccc(OC)cc23)CC1 [Example 217, Ethyl 4-(2-(2-chlorophenyl)-6-methoxyquinazolin-4-yl)piperazine-1-carboxylate]	
> 1	− (− indicates ≦ 10−fold)	CCOC(=O)N1CCN(c2nc(C3CCCCC3)nc3ccc(OC)cc23)CC1 [Example 218, Ethyl 4-(2-cyclohexyl-6-methoxyquinazolin-4-yl)piperazine-1-carboxylate]	
< 1	+ (+ indicates > 10−fold)	CCOC(=O)N1CCN(c2nc(-c3ccccc3Cl)nc3ccc(C(C)(C)C)cc23)CC1 [Example 219, Ethyl 4-(6-tert-butyl-2-(2-chlorophenyl)quinazolin-4-yl)piperazine-1-carboxylate]	
> 1	− (− indicates ≦ 10−fold)	CCOC(=O)N1CCN(c2nc(-c3ccc(F)c(F)c3)nc3ccccc23)CC1 [Example 220, Ethyl 4-(2-(3,4-difluorophenyl)quinazolin-4-yl)piperazine-1-carboxylate]	
< 1	+ (+ indicates > 10−fold)	CCOC(=O)N1CCN(c2nc(C3CCCCC3)nc3ccc(Cl)cc23)CC1 [Example 221, Ethyl 4-(6-chloro-2-cyclohexylquinazolin-4-yl)piperazine-1-carboxylate]	
< 1	− (− indicates ≦ 10−fold)	FC(F)(F)Oc1ccc2nc(-c3ccc(Cl)cc3)nc(N3CCCC3)c2c1 [Example 222, 2-(4-Chlorophenyl)-4-(pyrrolidin-1-yl)-6-(trifluoromethoxy)quinazoline]	
> 1	− (− indicates ≦ 10−fold)	CCOC(=O)N1CCN(c2nc(-c3ccc(Cl)cc3)nc3ccc(OC(F)(F)F)cc23)CC1 [Example 223, Ethyl 4-(2-(4-chlorophenyl)-6-(trifluoromethoxy)quinazolin-4-yl)piperazine-1-carboxylate]	
> 1	− (− indicates ≦ 10−fold)	FC(F)(F)Oc1ccc2nc(-c3ccc(Cl)cc3)nc(N3CCSCC3)c2c1 [Example 224, 4-(2-(4-Chlorophenyl)-6-(trifluoromethoxy)quinazolin-4-yl)thiomorpholine]	
< 1	+ (+ indicates > 10−fold)	CN1CCN(c2nc(-c3ccc(Cl)cc3)nc3ccc(OC(F)(F)F)cc23)CC1 [Example 225, 2-(4-Chlorophenyl)-4-(4-methylpiperazin-1-yl)-6-(trifluoromethoxy)quinazoline]	
< 1	+ (+ indicates > 10−fold)	COC(=O)N1CCN(c2nc(-c3ccccc3Cl)nc3ccccc23)CC1 [Example 226, Methyl 4-(2-(2-chlorophenyl)quinazolin-4-yl)piperazine-1-carboxylate]	
< 1	− (− indicates ≦ 10−fold)	Clc1ccccc1-c1nc(N2CCCC2)c2cccc(Cl)c2n1 [Example 227, 8-Chloro-2-(2-chlorophenyl)-4-(pyrrolidin-1-yl)quinazoline]	
> 1	− (− indicates ≦ 10−fold)	CN1CCN(c2nc(-c3ccccc3Cl)nc3c(Cl)cccc23)CC1 [Example 228, 8-Chloro-2-(2-chlorophenyl)-4-(4-methylpiperazin-1-yl)quinazoline]	

SMILES	EC50 [1, 3] [µM]	Selectivity, CB2 vs. CB1 [2]	EC50 ([1]; CB2 Ligand Binding Asssay EC50, competition with [3H] CP-55,940) [µM]
Clc1ccccc1-c1nc(NCC2CCCCC2)c2ccccc2n1 [Example 193, 2-(2-Chlorophenyl)-N-(cyclohexylmethyl)quinazolin-4-amine]		− (− indicates ≦ 10−fold)	> 1
